Source: patent publication US10722520B2, “Heterocyclic compounds and their use in preventing or treating bacterial infections” (MUTABILIS, priority 2016, dated 2020)

Key:
E. coli RGN238 = assay: MIC of ceftazidime (CAZ) at fixed concentration of compound (synergy), broth microdilution; assay type: cell-based; settings: MIC of ceftazidime with compound fixed at 4 μg/mL; strain RGN238 (E. coli)
Procedure, shortened: (§1)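 Exponential-phase inoculum, 5×10^5 cfu/mL final, in cation-supplemented MHB; 35° C in air for 16-20 h. MIC: lowest concentration giving no visible growth.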

E. coli UFR18 = assay: as above; assay type: cell-based; settings: MIC of ceftazidime with compound fixed at 4 μg/mL; strain UFR18 (E. coli)
Procedure, shortened: as §1

K. pneumoniae 200047 = assay: as above; assay type: cell-based; settings: MIC of ceftazidime with compound fixed at 4 μg/mL; strain 200047 (K. pneumoniae)
Procedure, shortened: as §1

K. pneumoniae UFR24 = assay: as above; assay type: cell-based; settings: MIC of ceftazidime with compound fixed at 4 μg/mL; strain UFR24 (K. pneumoniae)
Procedure, shortened: as §1

E. coli UFR41 = assay: as above; assay type: cell-based; settings: MIC of ceftazidime with compound fixed at 4 μg/mL; strain UFR41 (E. coli)
Procedure, shortened: as §1

E. coli UFR61O = assay: as above; assay type: cell-based; settings: MIC of ceftazidime with compound fixed at 4 μg/mL; strain UFR61O (E. coli)
Procedure, shortened: as §1

E. coli UFR39 = assay: as above; assay type: cell-based; settings: MIC of ceftazidime with compound fixed at 4 μg/mL; strain UFR39 (E. coli)
Procedure, shortened: as §1

E. cloacae UFR70 = assay: as above; assay type: cell-based; settings: MIC of ceftazidime with compound fixed at 4 μg/mL; strain UFR70 (E. cloacae)
Procedure, shortened: as §1

E. coli UFR74 = assay: as above; assay type: cell-based; settings: MIC of ceftazidime with compound fixed at 4 μg/mL; strain UFR74 (E. coli)
Procedure, shortened: as §1

E. coli 131119 = assay: as above; assay type: cell-based; settings: MIC of ceftazidime with compound fixed at 4 μg/mL; strain 131119 (E. coli)
Procedure, shortened: as §1

E. cloacae 260508 = assay: as above; assay type: cell-based; settings: MIC of ceftazidime with compound fixed at 4 μg/mL; strain 260508 (E. cloacae)
Procedure, shortened: as §1

E. cloacae UFR85 = assay: as above; assay type: cell-based; settings: MIC of ceftazidime with compound fixed at 4 μg/mL; strain UFR85 (E. cloacae)
Procedure, shortened: as §1

K. pneumoniae UFR77 = assay: as above; assay type: cell-based; settings: MIC of ceftazidime with compound fixed at 4 μg/mL; strain UFR77 (K. pneumoniae)
Procedure, shortened: as §1

K. pneumoniae 6299 [1] = assay: as above; assay type: cell-based; settings: MIC of ceftazidime with compound fixed at 4 μg/mL; strain 6299 (K. pneumoniae)
Procedure, shortened: as §1

P. aeruginosa CIP107051 [2] = assay: as above; assay type: cell-based; settings: MIC of ceftazidime with compound fixed at 4 μg/mL; strain CIP107051 (P. aeruginosa)
Procedure, shortened: as §1

K. pneumoniae UFR68 = assay: as above; assay type: cell-based; settings: MIC of ceftazidime with compound fixed at 4 μg/mL; strain UFR68 (K. pneumoniae)
Procedure, shortened: as §1

K. pneumoniae BAA-1898 = assay: as above; assay type: cell-based; settings: MIC of ceftazidime with compound fixed at 4 μg/mL; strain BAA-1898 (K. pneumoniae)
Procedure, shortened: as §1

E. cloacae UFR51 = assay: as above; assay type: cell-based; settings: MIC of ceftazidime with compound fixed at 4 μg/mL; strain UFR51 (E. cloacae)
Procedure, shortened: as §1

E. cloacae P99 = assay: as above; assay type: cell-based; settings: MIC of ceftazidime with compound fixed at 4 μg/mL; strain P99 (E. cloacae)
Procedure, shortened: as §1

E. coli 190317 = assay: as above; assay type: cell-based; settings: MIC of ceftazidime with compound fixed at 4 μg/mL; strain 190317 (E. coli)
Procedure, shortened: as §1

K. pneumoniae 160143 = assay: as above; assay type: cell-based; settings: MIC of ceftazidime with compound fixed at 4 μg/mL; strain 160143 (K. pneumoniae)
Procedure, shortened: as §1

K. oxytoca UFR21 = assay: as above; assay type: cell-based; settings: MIC of ceftazidime with compound fixed at 4 μg/mL; strain UFR21 (K. oxytoca)
Procedure, shortened: as §1

E. coli UFR32 = assay: as above; assay type: cell-based; settings: MIC of ceftazidime with compound fixed at 4 μg/mL; strain UFR32 (E. coli)
Procedure, shortened: as §1

CMY-37 = CMY-37 (Citrobacter freundii, UniProt P05193); settings: read-out: IC50 β-lactamase CMY-37; class (C); nitrocefin 200 μM, 30-min pre-incubation, enzyme 0.2 nM
Chain of CMY-37 (P05193 21-381 limits assumed): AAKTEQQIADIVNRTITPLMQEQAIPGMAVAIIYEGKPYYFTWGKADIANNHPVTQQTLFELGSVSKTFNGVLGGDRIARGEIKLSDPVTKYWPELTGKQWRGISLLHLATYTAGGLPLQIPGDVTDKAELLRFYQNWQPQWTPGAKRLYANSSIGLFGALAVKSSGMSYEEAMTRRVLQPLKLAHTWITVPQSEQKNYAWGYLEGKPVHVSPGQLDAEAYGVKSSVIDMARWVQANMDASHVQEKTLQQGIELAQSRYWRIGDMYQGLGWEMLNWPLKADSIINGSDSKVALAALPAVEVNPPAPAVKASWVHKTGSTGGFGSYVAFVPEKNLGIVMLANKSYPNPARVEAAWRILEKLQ

K. pneumoniae 6299 [3] = assay: MIC of compound alone, broth microdilution; assay type: cell-based; settings: Klebsiella pneumoniae, 6299, read-out: MIC compounds of the invention alone
Procedure, shortened: as §1

P. aeruginosa CIP107051 [4] = assay: MIC of compound alone, broth microdilution; assay type: cell-based; settings: Pseudomonas aeruginosa, CIP107051, read-out: MIC compounds of the invention alone
Procedure, shortened: as §1

## O=C1N2CC(n3cccn3)=CC(C2)N1OC(F)(F)C(=O)[O-].[Li+] (centres unmarked) [Example 4, lithium difluoro-(7-oxo-3-pyrazol-1-yl-1,6-diaza-bicyclo[3.2.1]oct-3-en-6-yloxy)-acetate]
E. coli RGN238
  MIC combination of CAZ and compounds of the invention at 4 μg/mL: <0.25
E. coli UFR18
  MIC combination of CAZ and compounds of the invention at 4 μg/mL: <0.25
K. pneumoniae 200047
  MIC combination of CAZ and compounds of the invention at 4 μg/mL: <0.25
K. pneumoniae UFR24
  MIC combination of CAZ and compounds of the invention at 4 μg/mL: 0.5
E. coli UFR41
  MIC combination of CAZ and compounds of the invention at 4 μg/mL: <0.25
E. coli UFR61O
  MIC combination of CAZ and compounds of the invention at 4 μg/mL: <0.25
E. coli UFR39
  MIC combination of CAZ and compounds of the invention at 4 μg/mL: <0.25
E. cloacae UFR70
  MIC combination of CAZ and compounds of the invention at 4 μg/mL: <0.25
E. coli UFR74
  MIC combination of CAZ and compounds of the invention at 4 μg/mL: <0.25
E. coli 131119
  MIC combination of CAZ and compounds of the invention at 4 μg/mL: <0.25
E. cloacae 260508
  MIC combination of CAZ and compounds of the invention at 4 μg/mL: ≤0.25
E. cloacae UFR85
  MIC combination of CAZ and compounds of the invention at 4 μg/mL: 1
K. pneumoniae UFR77
  MIC combination of CAZ and compounds of the invention at 4 μg/mL: <0.25
K. pneumoniae 6299 [1]
  MIC combination of CAZ and compounds of the invention at 4 μg/mL: ≤0.25
P. aeruginosa CIP107051 [2]
  MIC combination of CAZ and compounds of the invention at 4 μg/mL: 4
K. pneumoniae UFR68
  MIC combination of CAZ and compounds of the invention at 4 μg/mL: 4
K. pneumoniae BAA-1898
  MIC combination of CAZ and compounds of the invention at 4 μg/mL: 0.5
E. cloacae UFR51
  MIC combination of CAZ and compounds of the invention at 4 μg/mL: <0.25
E. cloacae P99
  MIC combination of CAZ and compounds of the invention at 4 μg/mL: ≤0.25
E. coli 190317
  MIC combination of CAZ and compounds of the invention at 4 μg/mL: <0.25
K. pneumoniae 160143
  MIC combination of CAZ and compounds of the invention at 4 μg/mL: <0.25
K. oxytoca UFR21
  MIC combination of CAZ and compounds of the invention at 4 μg/mL: 4
E. coli UFR32
  MIC combination of CAZ and compounds of the invention at 4 μg/mL: <0.25
CMY-37
  IC50: 150 nM
K. pneumoniae 6299 [3]
  MIC: 16 µg/mL
P. aeruginosa CIP107051 [4]
  MIC: > 32 µg/mL
